{"source": "patent US20250228983A1", "about": "“PROBES FOR CELLULAR SENESCENCE” (UNIVERSITY OF FLORIDA RESEARCH FOUNDATION, INCORPORATED, priority 2022, published 2025)", "key": {"[1]": {"test_system": "CT26.WT and CT26.CL25 cells (stably transfected with LacZ)", "assay": "Fluorescent cell imaging and flow cytometry of CT26.WT and CT26.CL25 cells", "type": "cell-based", "conditions": "10 μM probe", "experimental": "FIG. 5. FIG. 5A: Fluorescent cell imaging of CT26. WT and CT26.CL25 cells after incubating with 10 μM of NIR-BG2 or NIR-BG3 in serum free medium for 2 hours at 37° C. Cells were fixed, permeabilized with 0.5% Triton X-100 and stained with DAPI. Scale bar: […]. FIG. 5B: Flow cytometry and FIG. 5C quantification of fluorescence in CT26.WT and CT26.CL25 cells after incubating with 10 μM of NIR-BG2 or NIR-BG3.\nNIR-BG2 and NIR-BG3 were also compared in CT26.WT and CT26.CL25 that are stably transfected with LacZ."}, "[2]": {"molecular_target": "recombinant β-galactosidase (β-gal) (Escherichia coli, UniProt P00722)", "sequence (P00722 2-1024)": "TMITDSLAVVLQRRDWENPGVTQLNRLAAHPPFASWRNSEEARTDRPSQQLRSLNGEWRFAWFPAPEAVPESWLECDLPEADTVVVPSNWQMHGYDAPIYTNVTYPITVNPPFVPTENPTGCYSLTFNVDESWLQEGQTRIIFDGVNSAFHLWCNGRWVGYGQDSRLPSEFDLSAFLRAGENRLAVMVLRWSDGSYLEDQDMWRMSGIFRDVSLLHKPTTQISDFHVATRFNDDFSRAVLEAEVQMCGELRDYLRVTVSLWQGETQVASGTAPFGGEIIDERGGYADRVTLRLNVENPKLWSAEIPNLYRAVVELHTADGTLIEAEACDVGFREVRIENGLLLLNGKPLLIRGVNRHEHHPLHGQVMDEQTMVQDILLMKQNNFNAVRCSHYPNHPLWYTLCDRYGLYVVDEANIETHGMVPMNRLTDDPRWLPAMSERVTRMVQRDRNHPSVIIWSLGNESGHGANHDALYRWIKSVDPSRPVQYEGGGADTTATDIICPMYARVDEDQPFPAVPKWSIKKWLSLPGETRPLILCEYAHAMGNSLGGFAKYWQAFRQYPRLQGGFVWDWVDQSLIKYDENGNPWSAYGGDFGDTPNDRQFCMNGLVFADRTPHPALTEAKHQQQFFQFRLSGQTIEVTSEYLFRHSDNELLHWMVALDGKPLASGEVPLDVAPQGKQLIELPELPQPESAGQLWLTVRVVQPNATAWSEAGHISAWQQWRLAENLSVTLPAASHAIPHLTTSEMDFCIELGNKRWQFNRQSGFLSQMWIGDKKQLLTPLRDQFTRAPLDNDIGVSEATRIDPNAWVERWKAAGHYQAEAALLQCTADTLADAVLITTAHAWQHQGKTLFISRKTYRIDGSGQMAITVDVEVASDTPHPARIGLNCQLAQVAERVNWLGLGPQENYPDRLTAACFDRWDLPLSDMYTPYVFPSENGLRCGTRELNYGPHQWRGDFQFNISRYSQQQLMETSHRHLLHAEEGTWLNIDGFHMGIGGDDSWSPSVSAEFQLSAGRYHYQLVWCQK", "assay": "In gel fluorescence labeling efficiency on recombinant β-galactosidase", "type": "biochemical", "conditions": "10 μM probe, 10 units β-gal and/or 50 μg BSA, 50 μL PBS, 37° C., 2 h; compared with NIR-BG2", "experimental": "(§1) FIG. 4. Compare labeling efficiency using in gel fluorescence. 10 μM of NIR-BG2, NIR-BG3 or NIR-BG4 is incubated with 10 units of β-gal and/or 50 μg of BSA in total volume of 50 μL PBS solution were incubated at 37° C. for 2 h. Each lane was loaded with 10 μL of the reaction solution.\n(§2) In certain examples, two carbamate analogues were synthesized: NIR-BG3 carrying ethyl carbamate and NIR-BG4 carrying an endocyclic carbamate. To compare these two analogues with NIR-BG2, the three probes were incubated with recombinant β-galactosidase (p-gal) and bovine serum albumin (BSA) and the labeling efficiency of these probes on P-gal and BSA was compared using gel electrophoresis."}, "[3]": {"molecular_target": "bovine serum albumin (BSA) (Bos taurus, UniProt P02769)", "sequence (P02769 25-607)": "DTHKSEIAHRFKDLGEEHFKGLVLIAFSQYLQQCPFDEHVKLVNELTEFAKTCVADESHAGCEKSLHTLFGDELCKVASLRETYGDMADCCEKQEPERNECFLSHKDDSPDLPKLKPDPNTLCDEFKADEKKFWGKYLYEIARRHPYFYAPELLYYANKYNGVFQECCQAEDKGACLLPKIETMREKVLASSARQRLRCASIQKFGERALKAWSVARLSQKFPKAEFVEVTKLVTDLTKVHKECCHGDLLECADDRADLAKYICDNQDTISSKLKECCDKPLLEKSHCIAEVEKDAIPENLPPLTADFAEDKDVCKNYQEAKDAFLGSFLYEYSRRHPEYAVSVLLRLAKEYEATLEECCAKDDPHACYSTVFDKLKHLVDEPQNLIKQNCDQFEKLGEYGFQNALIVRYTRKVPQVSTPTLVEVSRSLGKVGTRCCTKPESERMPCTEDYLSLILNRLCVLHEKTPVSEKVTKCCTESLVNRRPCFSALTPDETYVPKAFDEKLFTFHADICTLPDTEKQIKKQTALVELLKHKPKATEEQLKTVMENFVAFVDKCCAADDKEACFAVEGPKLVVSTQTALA", "assay": "In gel fluorescence nonspecific labeling of BSA", "type": "biochemical", "conditions": "10 μM probe, 50 μg BSA, 50 μL PBS, 37° C., 2 h; compared with NIR-BG2", "experimental": "as §1, §2"}}, "data": [{"smiles": "CCC[N+]1=C(/C=C/C2=C3Oc4cc(OCc5ccc(O[C@@H]6OC(CO)[C@H](O)[C@H](O)C6O)cc5)c(COC(=O)NCC)cc4C=C3CCC2)C(C)(C)c2ccccc21", "note": "(stereo partly drawn) [NIR-BG3]", "values": [{"measurement": "contrast for CT26.CL25 cells over CT26.WT", "setting": "[1]; serum free medium, 2 hours, 37° C.", "value": "strong contrast"}, {"measurement": "mean intensity compared to NIR-BG2", "setting": "[1]; FIG. 5", "value": "about 2 fold"}, {"measurement": "background by flow cytometry", "setting": "[1]; compared with NIR-BG2", "value": "higher background"}, {"measurement": "fluorescence by flow cytometry", "setting": "[1]; compared with NIR-BG2", "value": "overall higher fluorescence"}, {"measurement": "fluorescent intensity (FIG. 5A and FIG. 5C)", "setting": "[1]; compared with NIR-BG2", "value": "much higher than NIR-BG2"}, {"measurement": "labeling efficiency (in gel fluorescence)", "setting": "[2]", "value": "significantly higher labeling efficiency"}, {"measurement": "nonspecific labeling of BSA", "setting": "[3]", "value": "slightly higher nonspecific labeling of BSA"}]}, {"smiles": "CCC[N+]1=C(/C=C/C2=C3Oc4cc(OCc5ccc(O[C@@H]6OC(CO)[C@H](O)[C@H](O)C6O)cc5)c(COC(=O)N5CCCCC5)cc4C=C3CCC2)C(C)(C)c2ccccc21", "note": "(stereo partly drawn) [NIR-BG4]", "values": [{"measurement": "labeling efficiency (in gel fluorescence)", "setting": "[2]", "value": "significantly higher labeling efficiency"}, {"measurement": "nonspecific labeling of BSA", "setting": "[3]", "value": "slightly higher nonspecific labeling of BSA"}]}]}
